The subject of one series is Tdp1. The series is described as follows: Western Blot of Tdp1 after shRNA in U2OS cells. The class given is cell-based. An excerpt: (§1) FIG. 4 Involvement of Tdp1 and PARP1 in HPV18 initial amplification. A: U2OS cells were transfected with HPV18 wt minicircle and sh_Tdp1 plasmid. Genomic DNA was extracted 3 and 4 days after the transfection, linearized and digested with DpnI. HPV replication signal was detected with Southern Blot analyses and B: quantified with phosphoimager. C: Western Blot analyses showing downregulation of Tdp1 protein by shRNA. D: U2OS cells were transfected with HPV18 wt minicircle and sh_PARP1 plasmid. HPV replication signal was detected with Southern Blot analyses and E: quantified with phosphoimager. F: Western Blot analyses showing downregulation of PARP1 protein by shRNA. G: U2OS cells were transfected with HPV18 wt minicircle and grown for 3 and 4 days in the presence of different concentrations of PARP1 inhibitor ABT-888. HPV replication signal was detected with Southern Blot analyses and H: quantified with phosphoimager. Error-bars represent standard deviations from at least three independent experiments.
(§2) Western Blot. The cells were lysed with Laemmli buffer (4% SDS, 20% glycerol, 120 mM Tris-Cl (pH 6.8), and 200 mM DTT) and boiled for 10 minutes at 100° C. […] Tdp1 and PARP1 were detected with their specific antibodies from Santa Cruz Biotechnology: sc-365674 and sc-56197 respectively. Tubulin (used as loading control) was detected using Sigma Aldrich antibody T9026. […]

Series [1] has as its system HPV18. The series is described as follows: HPV18 initial amplification replication assay in U2OS cells (Southern Blot). The class given is cell-based. To be noted: for HPV18 replication after shRNA downregulation: 3 and 4 days after transfection, vs empty shRNA plasmid; for IC50: 120 h, read-out: IC50 of HPV18 initial amplification; for inhibition of HPV18 initial amplification: HPV18 wt minicircle, 5 days, Southern Blot, relative to DMSO. An excerpt:
FIG. 2 Effect of the identified five compounds on HPV18 initial amplification. A: U2OS cells were transfected with HPV18 wt minicircle and grown in the presence of the compounds with indicated concentrations for 5 days. Genomic DNA was extracted, linearized, and digested with DpnI. HPV genome replication signals were detected using Southern Blot analyses and quantified with phosphoimager and expressed relative to vehicle control (DMSO). Approximate IC50 values are shown for each compound. Error-bars represent standard deviation from at least three independent experiment. B: U2OS cells were transfected with the expression vectors of HPV18 E1 and E2 proteins together with HPV18 URR (origin) minicircle plasmid. The cells were grown in the presence of the compounds with indicated concentrations for 24 or 48 hours. Genomic DNA was extracted, linearized and digested with DpnI. HPV URR replication signals were detected by Southern Blot analyses. DMSO serves as vehicle control and M 18URR serves as size marker.
(§3) Replication assay. The U2OS or U2OS-EBNA1 cells were transfected with 2 ug of HPV18 minicircle genome and lug of oriP plasmid (only in case of U2OS-EBNA1 cells). All the compounds were added to the media immediately after the transfection and media was changed on the third day. Replication signals were detected with Southern Blot method. Briefly, genomic DNA was extracted 3 and 4 days after the transfection with sh_RNAs or with the use of ABT-888 and 5 days after for analyses of the effects of HPV inhibitors w/wo CPT. DNA was digested with BglI and DpnI for analyses of HPV18 replication and with BstXI, ScaI and DpnI for analyses of HPV18 and oriP replication simultaneously. 3 ug of DNA was resolved in agarose gel, transferred to a nylon membrane (Membrane Solutions LLC) and hybridized with specific radioactively labeled probes. Signals were detected and quantified with Typhoon Trio+ phosphoimager (GE Healthcare) and exposed on an X-ray film (AGFA).
for compounds inhibiting initial amplification of HPV18 genome in U2OS cells. HT-screening was conducted with all the compounds in this library in 5 uM and 1 uM concentrations and it gave us 80 hits (approximately 5% of analyzed compounds). After validation of the hits on HPV18 wt genome, we found five compounds inhibiting initial amplification of HPV18 in U2OS cells (FIG. 1). To further characterize the compounds, we performed replication assay described in Example 1.

The subject of series [2] is HPV18. The series is described as follows: HPV18 replication in U2OS-EBNA1 cells, compounds alone or with CPT. The class given is cell-based. The following applies: 5 days; for synergistic effect together with CPT on HPV18 replication: U2OS-EBNA1, with 2 nM CPT. The method, then:
FIG. 5 Synergistic effect between Camptothecin (CPT) and the identified five compounds. U2OS-EBNA1 cells were transfected with HPV18 wt and oriP plasmids and grown in the presence of indicated concentrations of the compounds alone or together with 2 nM CPT for 5 days. Genomic DNA was extracted, linearized and digested with DpnI. Both HPV18 and oriP replication signals were detected with Southern Blot and quantified by phosphoimager. […] Error-bars represent standard deviations from at least three independent experiments.
as §3
Synergistic effect of Campthotecin (CPT) and HPV18 replication inhibitors. CPT is a Topoisomerase I inhibitor that stabilizes entrapped Top1cc complexes to DNA. Since Tdp1 is responsible for cleaving entrapped Top1cc complexes from DNA, synergistic effect between CPT and Tdp1 inhibitors occurs. In the experiments shown in FIG. 5 we used U2OS cells constitutively expressing Epstein Barr virus (EBV) EBNA1 protein—U2OS-EBNA1. These cells allow to monitor HPV and EBNA1 supported oriP plasmid replication simultaneously. […] U2OS-EBNA1 cells were cotransfected with HPV18 genome and oriP plasmid and the cells were grown in the presence of various concentrations of the identified HPV inhibitors alone or together with 2 nM of CPT for 5 days, DMSO was used as vehicle control.

The subject of series [3] is HPV18. As to the kind of experiment: Vegetative amplification of HPV18 in U2OS #1.13 cells, confluent. The class given is cell-based. The following applies: U2OS #1.13, confluent, compounds added on 5th day for additional 7 days. The protocol: (§4) FIG. 3 Effect of compounds on stable maintenance and vegetative amplification of HPV18. A: U2OS #1.13 cells were grown in subconfluent conditions in the presence of the identified five compounds for 7 days. Genomic DNA was extracted, linearized and HPV replication signal was detected by Southern Blot and B: quantified by phosphoimager. C: U2OS #1.13 were seeded and grown for 5 days without splitting. On the 5th day indicated concentrations of compounds were added to the media and the cells were grown for additional 7 days without splitting. On the 12th day genomic DNA was extracted, linearized and HPV replication signal was detected by Southern Blot and D: quantified by phosphoimager. Error-bars represent standard deviations from at least two independent experiments.
If #1.13 is grown in confluent conditions for at least 5 days, vegetative amplification of HPV genome is turned on. We seeded equal amounts of cells onto plates and grew them for 5 days without splitting. On the 5th day various concentrations of compound were added and the cells were grown for additional 7 days (media was changed every two days throughout the experiment). HPV replication signal was detected by Southern Blot analyses and quantified with phosphoimager.

For series [4], the system named is HPV18. The series is described as follows: Stable maintenance of HPV18 in U2OS #1.13 cells, subconfluent. The class given is cell-based. To be noted: U2OS #1.13, subconfluent, 7 days; for HPV18 replication signal lost: compared to DMSO control. The method, then: as §4
Our U2OScell-based system is suitable for studying all three replication stages of various HPV subtypes. Stable maintenance phase could be monitored by maintaining HPV-positive cells in subconfluent conditions. We used HPV18 positive monoclonal U2OS cell-line #1.13 with viral copy number ˜2000. We grew the #1.13 cells in the presence of various concentration of compounds in subconfluent conditions (cells were split every three days) for 7 days. HPV18 replication signal was detected by Southern blot analyses and quantified with phosphoimager. About 50% of the signal was lost in case of compound 82269 compared to the DMSO control (FIG. 3, panel A, compare lanes 4-6 with lane 15 and panel B).

A further series deals with Tdp (Homo sapiens, UniProt Q9NUW8). The following applies: known from the literature; cited from earlier work.
Tdp, sequence (Q9NUW8 whole entry): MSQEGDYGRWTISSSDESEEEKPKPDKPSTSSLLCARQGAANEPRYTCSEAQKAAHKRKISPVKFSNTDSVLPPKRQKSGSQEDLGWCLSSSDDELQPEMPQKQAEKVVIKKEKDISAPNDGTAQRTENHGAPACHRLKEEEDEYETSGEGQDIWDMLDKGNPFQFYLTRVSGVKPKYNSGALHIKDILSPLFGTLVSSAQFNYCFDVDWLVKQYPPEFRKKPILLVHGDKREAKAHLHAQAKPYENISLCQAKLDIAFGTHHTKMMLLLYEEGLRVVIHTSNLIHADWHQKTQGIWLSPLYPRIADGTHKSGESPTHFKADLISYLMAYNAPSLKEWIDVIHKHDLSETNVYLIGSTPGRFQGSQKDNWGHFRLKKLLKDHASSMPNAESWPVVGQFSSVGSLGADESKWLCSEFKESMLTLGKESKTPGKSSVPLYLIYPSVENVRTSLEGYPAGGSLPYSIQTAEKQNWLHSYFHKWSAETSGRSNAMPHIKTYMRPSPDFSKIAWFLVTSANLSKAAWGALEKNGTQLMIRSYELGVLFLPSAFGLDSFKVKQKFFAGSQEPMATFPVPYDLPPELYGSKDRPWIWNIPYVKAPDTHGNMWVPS
The next series concerns PARP1. The series is described as follows: Western Blot of PARP1 after shRNA in U2OS cells. The class given is cell-based.
From the text: as §1, §2

“Also recorded” adds a separate entry of the source.

Consider 8 molecules from patent publication US11000529B2, “Human papilloma virus replication inhibitors” (Icosagen Cell Factory OÜ, priority 2015, dated 2021).

The term IC50 denotes the concentration that gives 50% inhibition.

With “shRNA_Tdp1: Tdp1 shRNA plasmid, SEQ ID NO: 1, expression under RNA polymerase III promoter U6 (DNA GCACGATCTCTCTGAAACAAACTCGAGTTTGTTTCAGAGAGATCGT) [reference compound]”, the Tdp1 expression result in the series on Tdp1 is recorded as “decreased significantly”. Besides, the “HPV18 replication after shRNA downregulation” value in the series with HPV18 [1] is recorded as “clear decrease in HPV18 replication”.

Take `C[C@]1(c2nc3c(C(N)=O)cccc3[nH]2)CCCN1` [ABT-888, veliparib, reference compound]: the “HPV18 replication in presence of PARP1 inhibitor” value in the series with HPV18 [1] (3 and 4 days, various concentrations, vs DMSO) is recorded as “HPV18 replication is decreased”.

As to `Cc1cc(O)cc2c1[C@H]1CC[C@]3(C)C(=O)CC[C@H]3[C@H]1C=C2` [NSC 9782], the “synergistic effect together with CPT on HPV18 replication” value (from here on “synergistic effect together with CPT”) with HPV18 [2] was “clear concentration dependent synergistic effect; also recorded: clear synergistic inhibition”. Also, the “effect on vegetative amplification of HPV18” value with HPV18 [3] is on record as “did not have any effect; also recorded: does not inhibit any of the later replication stages”. Also, the “effect on stable maintenance of HPV18” value in the series with HPV18 [4] is recorded as “no significant reduction in signal; also recorded: does not inhibit any of the later replication stages”. Besides, in the series with HPV18 [1], the IC50 was 2.5 to 60 µM and the “inhibition of HPV18 initial amplification” value is “concentration-dependent inhibition”.

`CC[C@@]1(O)C(=O)OCc2c1cc1n(c2=O)Cc2cc3ccccc3nc2-1` [CPT, Camptothecin, reference compound]: in the series on HPV18 [2] (U2OS-EBNA1, 2 nM), the “HPV18 initial amplification, CPT alone” value is listed as “did not inhibit”.

On to `C[C@]12CC[C@H]3[C@H](CCC4=CC(=O)CC[C@@]43C)[C@@H]1CC[C@@H]2C(=O)COS(=O)(=O)c1ccc(Br)cc1` [NSC 88915], for which the “synergistic effect together with CPT” value with HPV18 [2] was “clear concentration dependent synergistic effect; also recorded: clear synergistic inhibition”. Besides, the Tdp inhibition result at Tdp is given as “known to inhibit Tdp”. Besides, the “effect on vegetative amplification of HPV18” value in the series with HPV18 [3] is “did not have any effect”. In the series with HPV18 [4], the “effect on stable maintenance of HPV18” value is recorded as “only inhibits stable maintenance phase” and the “HPV18 replication signal lost” value is “about 70%”. Besides, in the series on HPV18 [1], the IC50 is 2.5 to 60 µM and the “inhibition of HPV18 initial amplification” value is given as “concentration-dependent inhibition”.

For the molecule `CSc1ncc2[nH]c(C(O)c3ccccc3)nc2n1` (stereo not drawn) [NSC82269], in the series on HPV18 [2], the “synergistic effect together with CPT” value is recorded as “no synergistic effect; also recorded: does not”. The “effect on vegetative amplification of HPV18” value with HPV18 [3] is reported as “clear concentration-dependent inhibition; also recorded: clearly inhibit”. In the series with HPV18 [4], the “effect on stable maintenance of HPV18” value is “clearly inhibit” and the “HPV18 replication signal lost” value is listed as “About 50%”. For the same molecule, in the series on HPV18 [1], the IC50 was in the range of 2.5 to 60 µM and the “inhibition of HPV18 initial amplification” value is recorded as “concentration-dependent inhibition”.

With “shRNA_PARP1: PARP1 shRNA plasmid, SEQ ID NO: 2, expression under RNA polymerase III promoter U6 (DNA GGACTCGCTCCGGATGGCCTTCAAGAGAGGCCATCCGGAGCGAGTCC) [reference compound]”, in the series with PARP1, the PARP1 expression result is “decreased”. Also, the “HPV18 replication after shRNA downregulation” value with HPV18 [1] is “inhibits HPV18 replication significantly”.

As for `CC(=O)OC1CCC2(C)C(CCC3C2CC(=O)C2(C)C3CC(N3CC3)C2C(C)=O)C1` (stereo not drawn) [NSC 109128], the “synergistic effect together with CPT” value in the series with HPV18 [2] is recorded as “clear concentration dependent synergistic effect; also recorded: clear synergistic inhibition”. Besides, in the series on HPV18 [3], the “effect on vegetative amplification of HPV18” value is “almost completely abolished amplification; also recorded: clearly inhibit”. In addition, in the series on HPV18 [4], the “effect on stable maintenance of HPV18” value was “clearly inhibit” and the “HPV18 replication signal lost” value is reported as “about 70%”. In the series with HPV18 [1], the half-maximal inhibitory concentration (IC50) was in the range of 2.5 to 60 µM and the “inhibition of HPV18 initial amplification” value is given as “concentration-dependent inhibition”.
